Results as given in patent US10878939B2, “Methods and compositions for personalized pain management” (Children's Hospital Medical Center, priority 2014, dated 2020).
“And” between values parts separate entries of the source, which are not always exact repeats. Equal entries are not always repeated.

System: children undergoing tonsillectomy
Assay: Opioid-related adverse effects and PACU stay by sex, age and morphine dose (Example 6)
[1] = F, total morphine 0.2-<0.3 mg/kg
[2] = M, total morphine 0.2-<0.3 mg/kg
[3] = girls 8-13 years, total morphine <0.3 mg/kg
[4] = girls 8-13 years, total morphine >=0.3 mg/kg
[5] = girls <8 years, total morphine <0.3 mg/kg
[6] = girls <8 years, total morphine >=0.3 mg/kg
[7] = girls >13 years, total morphine <0.3 mg/kg
[8] = girls >13 years, total morphine >=0.3 mg/kg

Description: This was a prospective clinical observational study using a standard perioperative anesthetic and surgical practices and standard postoperative nursing care within the tonsillectomy population.
Clinical criteria for OSA designation included sleep disordered breathing with a history of snoring and either sleep pauses lasting more than 10 seconds or daytime drowsiness. Children were excluded from the study if they or their parents were non-English speaking.
As part of T/TA standard practice at this institution, all children receive prophylactic ondansetron (0.1 mg/kg) and dexamethasone (0.1 mg/kg) intraoperatively. Anesthesia is induced via sevoflurane inhaled induction followed by a propofol (2 mg/kg) bolus to facilitate endotracheal intubation. Anesthesia was maintained with sevoflurane without the use of neuromuscular blockade.
Adverse effects were measured by two sets of binary outcomes: 1) opioid-related side effects including RD, nausea/vomiting (PONV) and pruritus; 2) prolonged PACU stay secondary to respiratory depression or nausea/vomiting.
Duration of PACU stay (time to achieve PACU discharge readiness) was defined as the duration in PACU before achieving the following discharge criteria. […] This discharge readiness time is different from actual PACU discharge time as delays due to social reasons (e.g. waiting for car ride, etc.) were not included.
Prior to analyses, data quality was examined. […] To assess the sex effect, outcome measurements were first compared between boys and girls with and without OSA stratification. Continuous variables were compared using t-test or Wilcoxon rank-sum test and categorical variables were compared using Fisher's exact test.
Effects of age, weight, BMI z scores, and OSA were also tested as covariates for all the outcomes. When significant effects were detected (p<0.05), covariates were included in the final models. Binary outcomes were analyzed using logistic regression. Maximum NRS was analyzed using linear regression. Maximum FLACC score was analyzed by using a zero-inflated negative binomial model because of the inflated frequency of score 0. The total number of analgesic interventions followed a Poisson distribution and was analyzed using a generalized linear model.

CN1CC[C@]23c4c5ccc(O)c4O[C@H]2[C@@H](O)C=C[C@H]3[C@H]1C5 [morphine]
PONV, number of cases (F, All): 22 | PONV, proportion (F, All): (10%) | Prolonged stay in PACU due to PONV, proportion (F, All): (5%) | Prolonged stay in PACU due to RD, number of cases (F, All): 11 | Prolonged stay in PACU due to RD, proportion (F, All): (5%) | Pruritus, number of cases (F, All): 88 | Pruritus, proportion (F, All): (41%) | RD, proportion (F, All): (9%) | PONV, number of cases (F, OSA No): 11 | PONV, proportion (F, OSA No): (9%) | Prolonged stay in PACU due to PONV, proportion (F, OSA No): (2%) | Prolonged stay in PACU due to RD, number of cases (F, OSA No): 5 | Prolonged stay in PACU due to RD, proportion (F, OSA No): (4%) | Pruritus, number of cases (F, OSA No): 41 | Pruritus, proportion (F, OSA No): (33%) | RD, number of cases (F, OSA No): 9 | RD, proportion (F, OSA No): (7%) | PONV, number of cases (F, OSA Yes): 11 | PONV, proportion (F, OSA Yes): (12%) | Prolonged stay in PACU due to PONV, proportion (F, OSA Yes): (8%) | Prolonged stay in PACU due to RD, number of cases (F, OSA Yes): 6 | Prolonged stay in PACU due to RD, proportion (F, OSA Yes): (6%) | Pruritus, number of cases (F, OSA Yes): 47 | Pruritus, proportion (F, OSA Yes): (50%) | RD, proportion (F, OSA Yes): (12%) | PONV, number of cases (%) [1]: 8 (16) | Prolonged stay in PACU due to PONV, number of cases (%) [1]: 3 (6) | Prolonged stay in PACU due to RD, number of cases (%) [1]: 1 (2) | Pruritus, number of cases (%) [1]: 42 (84) | PONV, number of cases (%) (F, total morphine <0.2 mg/kg): 4 (10) | Prolonged stay in PACU due to PONV, number of cases (%) (F, total morphine <0.2 mg/kg): 2 (5) | Prolonged stay in PACU due to RD, number of cases (%) (F, total morphine <0.2 mg/kg): 2 (5) | Pruritus, number of cases (%) (F, total morphine <0.2 mg/kg): 29 (73) | PONV, number of cases (%) (F, total morphine ≥0.3 mg/kg): 10 (43) | Prolonged stay in PACU due to PONV, number of cases (%) (F, total morphine ≥0.3 mg/kg): 5 (22) | Prolonged stay in PACU due to RD, number of cases (%) (F, total morphine ≥0.3 mg/kg): 8 (35) | Pruritus, number of cases (%) (F, total morphine ≥0.3 mg/kg): 17 (74) | RD, number of cases (%) (F, total morphine ≥0.3 mg/kg): 12 (52) | PONV, number of cases (M, All): 14 | PONV, proportion (M, All): (6%) | Prolonged stay in PACU due to PONV, proportion (M, All): (4%) | Prolonged stay in PACU due to RD, number of cases (M, All): 13 | Prolonged stay in PACU due to RD, proportion (M, All): (6%) | Pruritus, number of cases (M, All): 79 | Pruritus, proportion (M, All): (36%) | RD, proportion (M, All): (8%) | PONV, number of cases (M, OSA No): 7 | PONV, proportion (M, OSA No): (6%) | Prolonged stay in PACU due to PONV, proportion (M, OSA No): (5%) | Prolonged stay in PACU due to RD, number of cases (M, OSA No): 8 | Prolonged stay in PACU due to RD, proportion (M, OSA No): (6%) | Pruritus, number of cases (M, OSA No): 51 | Pruritus, proportion (M, OSA No): (41%) | RD, number of cases (M, OSA No): 12 | RD, proportion (M, OSA No): (10%) | PONV, number of cases (M, OSA Yes): 7 | PONV, proportion (M, OSA Yes): (7%) | Prolonged stay in PACU due to PONV, proportion (M, OSA Yes): (2%) | Prolonged stay in PACU due to RD, number of cases (M, OSA Yes): 5 | Prolonged stay in PACU due to RD, proportion (M, OSA Yes): (5%) | Pruritus, number of cases (M, OSA Yes): 28 | Pruritus, proportion (M, OSA Yes): (30%) | RD, number of cases (M, OSA Yes): 6 | RD, proportion (M, OSA Yes): (6%) | PONV, number of cases (%) [2]: 7 (15) | Prolonged stay in PACU due to PONV, number of cases (%) [2]: 3 (6) | Prolonged stay in PACU due to RD, number of cases (%) [2]: 3 (6) | Pruritus, number of cases (%) [2]: 35 (76) | RD, number of cases (%) [2]: 6 (13) | PONV, number of cases (%) (M, total morphine <0.2 mg/kg): 6 (18) | Prolonged stay in PACU due to PONV, number of cases (%) (M, total morphine <0.2 mg/kg): 4 (12) | Prolonged stay in PACU due to RD, number of cases (%) (M, total morphine <0.2 mg/kg): 5 (15) | Pruritus, number of cases (%) (M, total morphine <0.2 mg/kg): 24 | RD, number of cases (%) (M, total morphine <0.2 mg/kg): 4 (12) | PONV, number of cases (%) (M, total morphine ≥0.3 mg/kg): 1 (4) | Prolonged stay in PACU due to PONV, number of cases (%) (M, total morphine ≥0.3 mg/kg): 1 (4) | Prolonged stay in PACU due to RD, number of cases (%) (M, total morphine ≥0.3 mg/kg): 5 (20) | Pruritus, number of cases (%) (M, total morphine ≥0.3 mg/kg): 20 (80) | RD, number of cases (%) (M, total morphine ≥0.3 mg/kg): 8 (32) | PONV, number of cases (%) [3]: 2 (5) | Prolonged stay in PACU due to PONV, number of cases (%) [3]: 2 (5) | Prolonged stay in PACU due to RD, number of cases (%) [3]: 1 (2) | Respiratory depression (RD), number of cases (%) [3]: 4 (9) | PONV, number of cases (%) [4]: 1 (11) | Prolonged stay in PACU due to PONV, number of cases (%) [4]: 1 (11) | Prolonged stay in PACU due to RD, number of cases (%) [4]: 3 (33) | Respiratory depression (RD), number of cases (%) [4]: 5 (56) | PONV, number of cases (%) [5]: 7 (19) | Prolonged stay in PACU due to PONV, number of cases (%) [5]: 2 (5) | Prolonged stay in PACU due to RD, number of cases (%) [5]: 2 (5) | Respiratory depression (RD), number of cases (%) [5]: 3 (8) | PONV, number of cases (%) [6]: 6 (60) | Prolonged stay in PACU due to PONV, number of cases (%) [6]: 4 (40) | Prolonged stay in PACU due to RD, number of cases (%) [6]: 4 (40) | Respiratory depression (RD), number of cases (%) [6]: 5 (50) | PONV, number of cases (%) [7]: 1 (9) | Prolonged stay in PACU due to PONV, number of cases (%) [7]: 1 (9) | Prolonged stay in PACU due to RD, number of cases (%) [7]: 0 (0) | Respiratory depression (RD), number of cases (%) [7]: 1 (9) | PONV, number of cases (%) [8]: 0 (0) | Prolonged stay in PACU due to PONV, number of cases (%) [8]: 0 (0) | Prolonged stay in PACU due to RD, number of cases (%) [8]: 1 (25) | Respiratory depression (RD), number of cases (%) [8]: 2 (50) | probability of all opioid adverse effects except for pruritus (girls, morphine exceeded 0.3 mg/kg, multivariate models): increased significantly | duration of stay in PACU (white boys, <0.3 mg/kg total morphine): 88.3 ± 3.6 min | duration of stay in PACU (white boys, ≥0.3 mg/kg total morphine): 99.7 ± 6.4 min | duration of stay in PACU (white girls, <0.3 mg/kg total morphine): 82.2 ± 3.3 min | duration of stay in PACU (white girls, ≥0.3 mg/kg total morphine, 0.3 mg/kg): 111 ± 6.6 min and 111.1 ± 6.6 min
